Assays:
[1] = Plasma stability in human plasma; assay type: in vitro ADME; conditions: 37° C.; for Percent Remaining (%) 1 h / Percent Remaining (%) 8 h / Percent Remaining (%) 24 h / Percent Remaining (%) […]: BQL: Below Quantitation Limit
Procedure: Plasma stability can be measured according to the following protocol.
Preheated 0.05 M sodium phosphate and 0.07 M NaCl buffer, pH 7.4: 14.505 g/L Na2HPO4_12H2O, 1.483 g/L NaH2PO4_2H2O and 4.095 g/L NaCl were dissolved in deionized water. The basic solution was then titrated with the phosphoric acid to pH 7.40 and stored refrigerated for up to 7 days. pH was checked on the day of experiment and adjusted if outside specification of 7.4+/−0.1.
Plasma preparation: frozen plasma were thawed by placing at 37° C. The plasma was centrifuged at 3,000 rpm for 8 minutes to remove clots, pipetted and the supernatant was pooled as the plasma to be used in the experiment. The pH of the plasma was checked and recorded and only used within the range of pH 7.4 to pH 8. If higher than pH 8, the plasma was discarded. The initial pH of the plasma was not adjusted to pH 7.4 with acid or by bubbling with CO2. By using a 5% CO2 incubator and PBS buffer, a pH of 7.4 was reached after a 4 hour equilibrium dialysis time. The plasma was put on ice until used.
Test compounds and reference compounds spiking solution. 0.5 mM test compounds spiking solution A: 10 μL of 10 mM test compounds stock solution was added to 190 μL DMSO. 0.02 mM spiking solution B: 40 μL of spiking solution A were added to 960 μL of 0.05 mM Sodium phosphate buffer with 0.5% BSA.
The plasma and spiking solution B were pre-warmed at 37° C. for 5 min. 10 μL of pre-warmed spiking solution B was added into the wells designated for all the time points (0, 0.25, 1, 8, 24 h). For 0-min, 400 μL of ACN containing 1S was added to the wells of 0-min plate and then 90 μL of plasma was added. 90 μL of pre-warmed plasma was added into the wells designated for the time points (0.25, 1, 8, 24 h), and start timing. At 0.25, 1, 8, 24 h, 400 μL of ACN containing IS was added to the wells of corresponding plates, respectively, to stop the reaction. After quenching, the plates were shaken on a vibrator (IKA, MTS 2/4) for 10 min (600 rpm/min) and then centrifuged at 5594 g for 15 min (Thermo Multifuge×3R). 50 μL of the supernatant from each well was transferred into a 96-well sample plate containing 50 μL of ultra pure water (Millipore, ZMQS50F01) for LC/MS analysis.

[2] = biological target: T1, Glucocorticoid Receptor (GR) (Homo sapiens, UniProt P04150); assay: Cell based GR responsive luciferase reporter assay in HEK293/UASLuc/pBIND-GR cells; conditions: ratio of highest RLU on the dose response curve to RLU in untreated wells, 48 hours
T1 construct: host or cells: HEK293 stably expressing human full length PRLR
T1 sequence (P04150 524-758 limits assumed): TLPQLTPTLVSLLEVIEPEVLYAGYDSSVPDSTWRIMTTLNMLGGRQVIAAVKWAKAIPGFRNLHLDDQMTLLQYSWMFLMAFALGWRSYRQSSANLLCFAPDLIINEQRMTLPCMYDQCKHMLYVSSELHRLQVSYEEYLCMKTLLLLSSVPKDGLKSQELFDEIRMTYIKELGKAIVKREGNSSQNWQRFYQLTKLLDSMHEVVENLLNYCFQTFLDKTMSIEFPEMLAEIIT

[3] = biological target: T1, Glucocorticoid Receptor (GR); assay: as above; conditions: for EC50: HEK293/UASLuc/pBIND-GR cells, 48 hours; for EC50 values after spacer attachment relative to parent steroid: comparison
Text: A cell-based GR responsive luciferase reporter assay was used to test the GR agonist activity of compounds described herein. In this assay, the following materials were used.
To generate the assay cell line, HEK293 cells were co-transfected with the pBind-GR (Promega, Cat #E158A) and pGL4.35 [Luc2P/9xGAL4UAS/Hygro] (Promega, Cat #E137A) vectors. The pBind-GR vector expresses a fusion protein consisting of the yeast Gal4DNA-binding domain and the GR ligand binding domain, that can bind to the Gal4 upstream activation sequence (UAS) in the luciferase expression vector and induce luciferase expression following GR agonist binding. The cells were selected for at least 2 weeks in G418+ hygromycin. The resulting cell line is referred to as HEK293/UASLuc/pBIND-GR.
Three-fold serial dilutions of test compounds were prepared in 100% DMSO, transferred to fresh assay media, and added to the cells. […] The last well in the plate served as blank control containing only the assay media and 0.2% DMSO (untreated well) and was plotted as a continuation of the 3-fold serial dilution.
Forty-eight hours later, luciferase activity was determined after the addition of One-Glo™ reagent (Promega, Cat #E6130). Relative light units (RLUs) were measured on an Envision luminometer (PerkinElmer) and EC50 values were determined using a four-parameter logistic equation over a 10-point dose response curve (GraphPad Prism). The signal to noise (S/N) was determined by taking the ratio of the highest RLU on the dose response curve to the RLU in the untreated wells.

[4] = Solubility of payloads and linker-payloads; conditions: aqueous DMSO (20%)

CCN(CC)CCOC(=O)c1ccc(N)cc1 [Procaine]
half-life at 2 µM [1]: < 0.25 h
Percent Remaining (%) 0 h [1]: 100.00%
Percent Remaining (%) 1 h [1]: BQL
Percent Remaining (%) 8 h [1]: BQL
Percent Remaining (%) 24 h [1]: BQL
Percent Remaining (%) […] [1]: BQL

CCCC1O[C@@H]2C[C@H]3[C@@H]4C[C@H](F)C5=CC(=O)C=C[C@]5(C)[C@@]4(F)[C@@H](O)C[C@]3(C)[C@]2(C(=O)CO)O1 (stereo in doubt) [Compound 100, (1S,2S,4R,8S,9S,11S,12R,13S,19S)-12,19-Difluoro-11-hydroxy-8-(2-hydroxyacetyl)-9,13-dimethyl-6-propyl-5,7-dioxapentacyclo[10.8.0.0^2,^9.0^4,^8.0^13,^18]icosa-14,17-dien-16-one]
S/N [2]: 14.5
fold more potent than 1a (budesonide) ([3]; EC50 comparison): 5.6 fold
fold more potent than Dexamethasone ([3]; EC50 comparison): 5.9 fold
EC50 [3]: 54.7 pM

CCCC1O[C@@H]2C[C@H]3[C@@H]4C[C@H](F)C5=CC(=O)C=C[C@]5(C)[C@@]4(F)[C@@H](O)C[C@]3(C)[C@]2(C(=O)COC(=O)c2ccc(CN)cc2)O1 (some centres unmarked) [Compound 105a]
fold less potent than 100 ([3]; EC50 comparison after spacer attachment to 100, text): 2.7 fold

CCCC1O[C@@H]2C[C@H]3[C@@H]4C[C@H](F)C5=CC(=O)C=C[C@]5(C)[C@@]4(F)[C@@H](O)C[C@]3(C)[C@]2(C(=O)COCNC(=O)CNC(=O)OCc2ccc(NC(=O)[C@H](CCCNC(N)=O)NC(=O)[C@@H](NC(=O)CCOCCOCCOCCOCCNC(=O)CCC(=O)N3Cc4ccccc4C#Cc4ccccc43)C(C)C)cc2)O1 (some centres unmarked) [LP10]
solubility [4]: < 20 µg/mL

CCCC1O[C@@H]2C[C@H]3[C@@H]4CCC5=CC(=O)C=C[C@]5(C)[C@H]4[C@@H](O)C[C@]3(C)[C@]2(C(=O)COCNC(=O)CNC(=O)OCc2ccc(NC(=O)[C@H](CCCNC(N)=O)NC(=O)[C@@H](NC(=O)CCOCCOCCOCCOCCNC(=O)CCC(=O)N3Cc4ccccc4C#Cc4ccccc43)C(C)C)cc2)O1 (some centres unmarked) [LP9]
solubility [4]: < 20 µg/mL

CCCC1O[C@@H]2C[C@H]3[C@@H]4CCC5=CC(=O)C=C[C@]5(C)[C@H]4[C@@H](O)C[C@]3(C)[C@]2(C(=O)COCNC(=O)CN)O1 (stereo partly drawn) [Compound 103a, 2-Amino-N-({2-[(1S,2S,4R,8S,9S,11S,12S,13R)-11-hydroxy-9,13-dimethyl-16-oxo-6-propyl-5,7-dioxapentacyclo[10.8.0.0^2,^9.0^4,^8.0^13,^18]icosa-14,17-dien-8-yl]-2-oxoethoxy}methyl)acetamide]
solubility (physchem): < 20 µg/mL
S/N [2]: 14.6
EC50 [3]: 484 pM
EC50 values after spacer attachment relative to parent steroid [3]: comparable to 1a
half-life at 2 µM [1]: 16.8 h
Percent Remaining (%) 0 h [1]: 100.00%
Percent Remaining (%) 1 h [1]: 96.48%
Percent Remaining (%) 8 h [1]: 78.87%
Percent Remaining (%) 24 h [1]: 38.03%
Percent Remaining (%) […] [1]: 107.04%

CCCC1O[C@@H]2C[C@H]3[C@@H]4C[C@H](F)C5=CC(=O)C=C[C@]5(C)[C@@]4(F)[C@@H](O)C[C@]3(C)[C@]2(C(=O)COCNC(=O)CN)O1 (stereo partly drawn) [Compound 103b, 2-Amino-N-({2-[(1S,2S,4R,8S,9S,11S,12R,13S,19S)-12,19-difluoro-11-hydroxy-9,13-dimethyl-16-oxo-6-propyl-5,7-dioxapentacyclo[10.8.0.0^2,^9.0^4,^8.0^13,^18]icosa-14,17-dien-8-yl]-2-oxoethoxy}methyl)acetamide]
solubility (physchem): < 20 µg/mL
S/N [2]: 16.6
EC50 values after spacer attachment relative to parent steroid [3]: comparable to 100

From patent publication US20250064954A1, “STEROIDS AND ANTIBODY-CONJUGATES THEREOF” (REGENERON PHARMACEUTICALS, INC., priority 2018, published 2025)
